Experimental data taken from patent US11192890B2, “FGFR kinase inhibitors and pharmaceutical uses” (AUCKLAND UNISERVICES LIMITED, priority 2017, dated 2021).
Where “and” joins values, the source holds several entries; their conditions need not be identical. Equal entries are not always repeated. Where two headings read alike, the source gives them in different places.

Key:
[1] = test system: FGFR1-amplified H520 non-small cell lung cancer cells; experiment: Cell proliferation assay (SRB); assay type: cell-based; conditions: Homo sapiens, NCI-H520, 168 h, read-out: Cellular Anti-proliferative IC50, H520
[2] = test system: FGFR4-amplified Hep3B hepatocellular carcinoma cells; experiment: Cell proliferation assay (SRB); assay type: cell-based; conditions: Homo sapiens, Hep3B; read-out: Cellular Anti-proliferative IC50, Hep3B
FGFR2 = target: T1, FGFR2 (Homo sapiens, UniProt P21802); experiment: Isolated enzyme FRET-based Z-Lyte kinase inhibition assay; assay type: biochemical; conditions: means from 3 independent experiments; read-out: Isolate Enzyme Inhibition IC50, FGFR2
T1 construct: purchased Invitrogen
Description: (§1) FGFR1-4 and the Z-Lyte Kinase Assay Kit were purchased from Invitrogen. The concentration gradients from 5.1×10^−11 to 1.0×10^−6 mol/L were used for all the test compounds. The experiments were performed according to the instructions of the manufacturer.
(§2) FGFR1-4 isolated enzyme activity was determined using the FRET-based Z-Lyte kinase inhibition assay. The data are the means from 3 independent experiments.

FGFR3 = target: T2, FGFR3 (Homo sapiens, UniProt P22607); experiment: as above; assay type: biochemical; conditions: means from 3 independent experiments; read-out: Isolate Enzyme Inhibition IC50, FGFR3
T2 construct: purchased Invitrogen
Description: as §1, §2

FGFR1 = target: T3, FGFR1 (Homo sapiens, UniProt P11362); experiment: as above; assay type: biochemical; conditions: means from 3 independent experiments; read-out: Isolate Enzyme Inhibition IC50, FGFR1
T3 construct: purchased Invitrogen
Description: as §1, §2

FGFR4 = target: T4, FGFR4 (Homo sapiens, UniProt P22455); experiment: as above; assay type: biochemical; conditions: means from 3 independent experiments; read-out: Isolate Enzyme Inhibition IC50, FGFR4
T4 construct: purchased Invitrogen
Description: as §1, §2

[3] = test system: FGFR1 in H520 cells (phospho-ERK1/2); experiment: Drug washout Western blot assay, H520 cells; assay type: cell-based; conditions: for exposure concentration for irreversible inhibition (fully covalently bind the target) in cells: H520 (FGFR1), 30 minute exposure; for inhibition of phosphorylation of ERK1/2, no washout / phospho-ERK1/2 after extensive drug washout: 30 min; for inhibition of phosphorylation of ERK1/2, no washout: then FGF-stimulation; for phospho-ERK1/2 after extensive drug washout: washout prior to FGF-stimulation; for reversible or irreversible inhibition of FGFR1 in cells: with and without washout
[4] = test system: FGFR2-amplified SUM52 breast cancer cells; experiment: Cell proliferation assay (SRB); assay type: cell-based; conditions: SUM52, 120 h, read-out: Cellular Anti-proliferative IC50, SUM52, 5 days drug exposure
[5] = test system: FGFR3 in SW780 cells (phospho-ERK1/2); experiment: Drug washout Western blot assay, SW780 cells; assay type: cell-based; conditions: for exposure concentration for irreversible inhibition (fully covalently bind the target) in cells: SW780 (FGFR3), 30 minute exposure; for inhibition of phosphorylation of ERK1/2, no washout / phospho-ERK1/2 after extensive drug washout / reversible or irreversible inhibition of FGFR3 in cells: SW780; for inhibition of phosphorylation of ERK1/2, no washout / phospho-ERK1/2 after extensive drug washout: 30 min; for inhibition of phosphorylation of ERK1/2, no washout: then FGF-stimulation; for phospho-ERK1/2 after extensive drug washout: washout prior to FGF-stimulation; for reversible or irreversible inhibition of FGFR3 in cells: with and without washout
[6] = test system: FGFR2 in SUM52 cells (phospho-ERK1/2); experiment: Drug washout Western blot assay, SUM52 cells; assay type: cell-based; conditions: for exposure concentration for irreversible inhibition (fully covalently bind the target) in cells: SUM52 (FGFR2), 30 minute exposure; for inhibition of phosphorylation of ERK1/2, no washout / phospho-ERK1/2 after extensive drug washout: 30 min; for inhibition of phosphorylation of ERK1/2, no washout: then FGF-stimulation; for phospho-ERK1/2 after extensive drug washout: washout prior to FGF-stimulation
Description: Cells were seeded on the day prior to drug treatment (1 million cells/well; 6-well plate).
Drug stocks were prepared in media using 1 mM or 10 mM DMSO stock solutions. Media was aspirated from each well and replaced with 2 ml of drug-free media for control wells or 2 ml of diluted drug for treated wells. Cells were exposed to drug for 30 min. Recombinant FGF (50 ng/well) was added to each well 15 minutes prior to the end of the drug exposure and protein was extracted as below.
Cells were exposed to drug for 30 min as above. Media was aspirated and each well was washed with 5 ml drug-free media. The wash media was aspirated and replaced with 2 ml drug-free media and cells incubated for a further 30 minutes, after which the wash protocol was repeated. Cells were incubated for a further 90 minutes in drug-free media. Recombinant FGF (50 ng/well) was added to each well 15 minutes prior to the end of the drug-free incubation and protein was extracted as below.
Cell lysates were prepared in 250 μL of RIPA lysis buffer containing protease inhibitor (1:100). After incubation on ice (30 min) and centrifugation (13,000 rpm, 5 min, 4° C.) the supernatants containing the proteins were stored (−20° C.) until required. Bicinchoninic acid (BCA) assay was used to determine the protein concentration of individual cell lysate samples.

[7] = test system: FGFR3-amplified SW780 bladder cancer cells; experiment: Cell proliferation assay (SRB); conditions: Homo sapiens, SW780, 120 h
[8] = target: T5, recombinant FGFR1 (C584S) kinase domain (Homo sapiens, UniProt P11362, C584S); experiment: FGFR1 (C584S) covalent binding protein mass spectrometry assay; conditions: protein:inhibitor 1:10, 37° C.
T5 construct: made in house; host or cells: pETDuet vector, IPTG induction in Terrific Broth (bacterial)
Description: The previously cloned C488A/C584S FGFR1 construct was modified by site-directed mutagenesis to provide a gene encoding the C584S FGFR1 kinase domain with the cysteine at amino acid C488 reinstated. Expression and purification of this protein followed the protocol described above but with the addition of 10% glycerol to all buffers and a change of buffer pH to a value of 8.5. Protein for mass spectrometry was concentrated to ˜40 mg/ml and was mixed 1:1 (v/v) with glycerol, and then frozen at −20° C. or flash cooled in liquid nitrogen and stored at −80° C. until needed.
Protein samples were buffer exchanged to remove glycerol (the final buffer comprised 20 mM Tris-HCl pH 8.5, 10% (v/v) glycerol, 20 mM NaCl, 5 mM EDTA, 2 mM TCEP) and were mixed with each inhibitor at 1:10 molar ratio (protein:inhibitor). Final protein concentration was 20 μM. […] Samples were mixed with 90 μL of 0.1% formic acid to quench the reaction followed by flash cooling in liquid nitrogen. Samples were stored at −80° C. until needed. All experiments were carried out in triplicate.
Samples were subjected to liquid chromatography mass spectrometry (LC-MS) to show mass changes attributable to irreversible inhibition. Mass spectrometry experiments were performed at the University of Auckland Mass Spectrometry Center using an electropspray QSTAR® XL ESI quadrupole Time-of-Flight (QToF) MS system (Applied Biosystems) operated in positive ionization mode. The instrument was calibrated using Renin Substrate Standard (SCIEX), over the m/z range 100-2000. Protein/inhibitor samples were thawed and 2 μL volumes injected into a liquid chromatography (LC) BIOshell™ A400 Protein C4 HPLC column (10 cm×2.1 mm, 3.4 μm) attached to the mass spectrometer. […] Following elution, samples were directly injected into the mass spectrometer for separation and mass analysis. Mass spectrometry data were processed and analysed using the PeakView™ 2.1 software and the Bio Tool Kit plug-in (SCIEX) and covered an m/z range of 330-1600. Deconvolution calculations allowed visualisation of intact mass protein peaks and allowed peak area measurement to assess the percentage of protein covalently modified by each inhibitor at each time point. Data was plotted using GraphPad Prism 7 (GraphPad).

panel of 456 kinases = experiment: Biochemical kinase selectivity screening (DiscoveRx KINOMEscan); assay type: binding
[9] = H520, 2 hours exposure, 100, 300 and 600 nM
[10] = read-out: Cellular Anti-proliferative IC50, SW780

T2 sequence (P22607 23-806): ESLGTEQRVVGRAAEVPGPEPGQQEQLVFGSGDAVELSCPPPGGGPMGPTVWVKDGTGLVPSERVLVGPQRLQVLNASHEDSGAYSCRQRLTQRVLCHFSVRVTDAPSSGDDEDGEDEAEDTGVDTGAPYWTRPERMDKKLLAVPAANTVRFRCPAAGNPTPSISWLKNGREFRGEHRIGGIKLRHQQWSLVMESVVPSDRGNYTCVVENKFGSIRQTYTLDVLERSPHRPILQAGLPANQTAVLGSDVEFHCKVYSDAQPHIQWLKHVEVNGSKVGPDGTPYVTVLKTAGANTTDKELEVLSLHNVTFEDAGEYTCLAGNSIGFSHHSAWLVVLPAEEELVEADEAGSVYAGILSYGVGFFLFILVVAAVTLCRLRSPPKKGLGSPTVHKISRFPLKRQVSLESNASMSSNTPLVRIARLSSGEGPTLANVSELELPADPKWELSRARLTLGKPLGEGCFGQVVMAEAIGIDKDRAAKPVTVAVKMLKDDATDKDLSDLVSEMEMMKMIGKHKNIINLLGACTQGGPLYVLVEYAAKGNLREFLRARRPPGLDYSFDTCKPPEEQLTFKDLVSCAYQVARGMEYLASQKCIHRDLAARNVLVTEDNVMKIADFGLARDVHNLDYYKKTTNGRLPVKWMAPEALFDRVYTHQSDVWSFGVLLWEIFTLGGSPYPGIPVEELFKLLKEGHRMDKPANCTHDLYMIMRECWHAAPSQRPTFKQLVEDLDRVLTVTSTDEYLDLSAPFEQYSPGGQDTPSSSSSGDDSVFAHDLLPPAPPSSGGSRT
T1 sequence (P21802 22-821): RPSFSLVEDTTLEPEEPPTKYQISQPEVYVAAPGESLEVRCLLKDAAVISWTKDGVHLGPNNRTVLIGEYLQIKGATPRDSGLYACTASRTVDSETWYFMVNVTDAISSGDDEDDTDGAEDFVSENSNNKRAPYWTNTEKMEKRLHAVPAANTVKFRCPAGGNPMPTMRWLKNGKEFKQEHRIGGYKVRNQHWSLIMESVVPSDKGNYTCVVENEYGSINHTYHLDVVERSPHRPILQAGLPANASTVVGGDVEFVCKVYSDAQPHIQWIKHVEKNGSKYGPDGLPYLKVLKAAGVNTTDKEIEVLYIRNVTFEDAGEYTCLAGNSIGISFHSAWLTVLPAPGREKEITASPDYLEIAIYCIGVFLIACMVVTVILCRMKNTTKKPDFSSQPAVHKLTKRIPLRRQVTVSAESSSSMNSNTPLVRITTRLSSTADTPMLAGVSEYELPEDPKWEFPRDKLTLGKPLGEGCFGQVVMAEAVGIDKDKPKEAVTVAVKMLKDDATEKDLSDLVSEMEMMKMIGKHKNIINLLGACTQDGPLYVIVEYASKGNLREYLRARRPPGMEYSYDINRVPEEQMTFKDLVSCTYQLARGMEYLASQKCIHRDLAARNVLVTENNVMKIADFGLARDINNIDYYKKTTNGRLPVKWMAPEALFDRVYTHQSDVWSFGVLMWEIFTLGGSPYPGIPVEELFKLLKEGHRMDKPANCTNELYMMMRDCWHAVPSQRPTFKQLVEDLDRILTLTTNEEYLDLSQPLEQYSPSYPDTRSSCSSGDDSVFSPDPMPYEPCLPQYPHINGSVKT
T5 sequence (P11362 with tags, fused parts or gaps C584S): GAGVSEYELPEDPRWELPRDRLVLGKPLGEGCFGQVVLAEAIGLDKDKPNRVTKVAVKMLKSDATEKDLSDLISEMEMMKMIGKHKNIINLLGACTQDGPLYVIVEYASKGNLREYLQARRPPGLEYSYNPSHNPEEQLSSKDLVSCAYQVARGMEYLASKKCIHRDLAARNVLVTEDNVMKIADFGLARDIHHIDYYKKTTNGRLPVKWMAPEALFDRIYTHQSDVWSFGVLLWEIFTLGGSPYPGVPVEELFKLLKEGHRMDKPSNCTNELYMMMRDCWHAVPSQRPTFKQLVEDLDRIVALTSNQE
T4 sequence (P22455 22-802): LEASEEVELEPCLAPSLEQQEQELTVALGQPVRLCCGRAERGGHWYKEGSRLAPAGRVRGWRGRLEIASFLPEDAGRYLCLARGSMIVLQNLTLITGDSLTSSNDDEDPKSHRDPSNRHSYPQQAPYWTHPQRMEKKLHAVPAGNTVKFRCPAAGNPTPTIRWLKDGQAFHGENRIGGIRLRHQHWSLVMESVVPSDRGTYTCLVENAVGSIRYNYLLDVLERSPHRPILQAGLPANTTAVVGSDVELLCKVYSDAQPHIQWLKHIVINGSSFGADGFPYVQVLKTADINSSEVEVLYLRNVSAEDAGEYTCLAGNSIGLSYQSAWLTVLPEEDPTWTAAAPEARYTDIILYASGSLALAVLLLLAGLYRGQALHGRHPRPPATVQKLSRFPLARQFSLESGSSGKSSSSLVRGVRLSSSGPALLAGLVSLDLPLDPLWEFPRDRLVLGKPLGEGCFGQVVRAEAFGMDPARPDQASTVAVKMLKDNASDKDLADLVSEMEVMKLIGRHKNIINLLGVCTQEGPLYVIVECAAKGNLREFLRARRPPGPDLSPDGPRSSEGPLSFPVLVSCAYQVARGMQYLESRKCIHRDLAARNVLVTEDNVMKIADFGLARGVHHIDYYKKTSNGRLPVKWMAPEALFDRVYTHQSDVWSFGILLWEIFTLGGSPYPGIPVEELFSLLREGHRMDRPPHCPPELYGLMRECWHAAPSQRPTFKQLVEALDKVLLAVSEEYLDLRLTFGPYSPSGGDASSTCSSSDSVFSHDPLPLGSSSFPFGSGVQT
T3 sequence (P11362 22-822): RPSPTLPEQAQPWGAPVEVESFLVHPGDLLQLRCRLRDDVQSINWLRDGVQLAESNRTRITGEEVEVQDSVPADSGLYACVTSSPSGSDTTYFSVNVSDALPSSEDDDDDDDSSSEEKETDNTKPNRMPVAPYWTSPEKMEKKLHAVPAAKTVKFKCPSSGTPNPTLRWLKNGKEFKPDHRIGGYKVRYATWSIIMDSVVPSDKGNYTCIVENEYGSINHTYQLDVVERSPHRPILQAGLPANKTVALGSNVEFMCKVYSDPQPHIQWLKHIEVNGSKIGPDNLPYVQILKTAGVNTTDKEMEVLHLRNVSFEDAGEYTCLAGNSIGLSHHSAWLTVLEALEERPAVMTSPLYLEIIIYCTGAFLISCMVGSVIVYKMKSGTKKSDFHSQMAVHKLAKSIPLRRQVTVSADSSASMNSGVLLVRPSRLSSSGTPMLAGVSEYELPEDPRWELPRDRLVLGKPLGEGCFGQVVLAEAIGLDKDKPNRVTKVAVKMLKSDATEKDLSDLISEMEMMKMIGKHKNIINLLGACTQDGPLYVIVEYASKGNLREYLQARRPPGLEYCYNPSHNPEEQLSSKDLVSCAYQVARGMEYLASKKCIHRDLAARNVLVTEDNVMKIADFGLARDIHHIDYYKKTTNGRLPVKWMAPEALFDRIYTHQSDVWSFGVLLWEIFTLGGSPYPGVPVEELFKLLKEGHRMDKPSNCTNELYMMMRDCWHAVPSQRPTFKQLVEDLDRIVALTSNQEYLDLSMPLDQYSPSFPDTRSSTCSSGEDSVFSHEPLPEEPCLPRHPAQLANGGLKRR

SMILES | IC50 [1] | IC50 [2] | IC50 (FGFR2) | IC50 (FGFR3) | IC50 (FGFR1) | IC50 (FGFR4) | exposure concentration for irreversible inhibition (fully covalently bind the target) in cells [3] | inhibition of phosphorylation of ERK1/2, no washout ([3]; H520, 100 nM) | phospho-ERK1/2 after extensive drug washout ([3]; H520, 100 nM) | phospho-ERK1/2 after extensive drug washout ([3]; H520, 1000 nM) | IC50 [4] | exposure concentration for irreversible inhibition (fully covalently bind the target) in cells [5] | inhibition of phosphorylation of ERK1/2, no washout ([5]; 100 nM) | phospho-ERK1/2 after extensive drug washout ([5]; 100 nM) | phospho-ERK1/2 after extensive drug washout ([5]; 1000 nM) | exposure concentration for irreversible inhibition (fully covalently bind the target) in cells [6] | inhibition of phosphorylation of ERK1/2, no washout ([6]; SUM52, 100 nM) | phospho-ERK1/2 after extensive drug washout ([6]; SUM52, 100 nM) | phospho-ERK1/2 after extensive drug washout ([6]; SUM52, 1000 nM) | IC50 [7, 10] | also measured
COc1cc(OC)c(Cl)c(N2Cc3cnc(NC(C)C)nc3N([C@H]3CCN(C(=O)/C=C/CN(C)C)C3)C2=O)c1Cl [Compound 104, (S,E)-3-(2,6-dichloro-3,5-dimethoxyphenyl)-1-(1-(4-(dimethylamino)but-2-enoyl)pyrrolidin-3-yl)-7-(isopropylamino)-3,4-dihydropyrimido[4,5-d]pyrimidin-2(1H)-one] | 17 nM | 12 nM | 23 nM | 35 nM | 1.1 nM | 906 nM | 1000 nM | complete inhibition | restoration | essential full inhibition | 1.4 nM | 1000 nM | complete inhibition | restoration | essential full inhibition | 1000 nM | complete inhibition | restoration | essential full inhibition | 11 nM | reversible or irreversible inhibition of FGFR1 in cells [3, 9]: potent, irreversible inhibition; concentration required to suppress FGFR1 signalling through phospho-ERK1/2 ([3]; H520, 2 hours exposure, tested at 100, 300 and 600 nM): 300 nM; reversible or irreversible inhibition of FGFR3 in cells ([5]; 120 minutes exposure, 100 nM): reversible; % Conversion to FGFR1 (C584S) covalent adduct after 120 minutes incubation [8]: 8%
COc1cc(OC)c(Cl)c(N2Cc3cnc(NC4CCCCC4)nc3N([C@H]3CCN(C(=O)/C=C/CN(C)C)C3)C2=O)c1Cl [Compound 105, (S,E)-7-(cyclohexylamino)-3-(2,6-dichloro-3,5-dimethoxyphenyl)-1-(1-(4-(dimethylamino)but-2-enoyl)pyrrolidin-3-yl)-3,4-dihydropyrimido[4,5-d]pyrimidin-2(1H)-one] | 68 nM | 80 nM | 16 nM | 33 nM | 1.2 nM | 729 nM | 1000 nM | complete inhibition | partially inhibited | essential full inhibition | 2.1 nM | 1000 nM | complete inhibition | fully restored | essential full inhibition | 1000 nM | complete inhibition | remained inhibited | essential full inhibition | 4 nM | % Conversion to FGFR1 (C584S) covalent adduct after 120 minutes incubation [8]: 8%
COc1cc(OC)c(Cl)c(N2Cc3cnc(Nc4ccccc4)nc3N([C@H]3CCN(C(=O)/C=C/CN(C)C)C3)C2=O)c1Cl [Compound 106, (S,E)-3-(2,6-dichloro-3,5-dimethoxyphenyl)-1-(1-(4-(dimethylamino)but-2-enoyl)pyrrolidin-3-yl)-7-(phenylamino)-3,4-dihydropyrimido[4,5-d]pyrimidin-2(1H)-one] | 11 nM | 5.5 nM | 26 nM | 17 nM | 1.1 nM | < 100 nM and 94 nM | 100 nM | complete inhibition | fully inhibited | essential full inhibition | 0.5 nM | 100 nM | complete inhibition | fully inhibited | essential full inhibition | 100 nM | complete inhibition | fully inhibited | essential full inhibition | 5 nM | reversible or irreversible inhibition of FGFR1 in cells ([3]; H520, 30 min exposure, 100 nM): potent irreversible inhibitor; reversible or irreversible inhibition of FGFR3 in cells ([5]; 30 min exposure, 100 nM): potent irreversible inhibitor; reversible or irreversible inhibition of FGFR3 in cells ([5]; 120 minutes exposure, 100 nM): irreversible; reversible or irreversible inhibition of FGFR2 in cells ([6]; SUM52, 30 min exposure, 100 nM, with and without washout): potent irreversible inhibitor; % Conversion to FGFR1 (C584S) covalent adduct after 120 minutes incubation [8]: 11%
COc1cc(OC)c(Cl)c(N2Cc3cnc(Nc4ccc(F)cc4)nc3N(C3CCN(C(=O)/C=C/CN(C)C)CC3)C2=O)c1Cl [Compound 120, (E)-3-(2,6-dichloro-3,5-dimethoxyphenyl)-1-(1-(4-(dimethylamino)but-2-enoyl)piperidin-4-yl)-7-((4-fluorophenyl)amino)-3,4-dihydropyrimido[4,5-d]pyrimidin-2(1H)-one] | 8.7 nM |  |  |  |  |  |  |  |  |  | 0.8 nM |  |  |  |  |  |  |  |  |  | share of the non-mutant kinases studied with Percent Control <35 (panel of 456 kinases; 1 uM, 33/403 kinases): 8.2%; selectivity for the FGFR family (panel of 456 kinases; panel of 456 kinases): excellent selectivity; S(35) selectivity score (panel of 456 kinases; set concentration of 1 uM): 0.082; reversible or irreversible inhibition of FGFR1 in cells [3, 9]: potent, irreversible inhibition; IC50 ([7]; read-out: Cellular Anti-proliferative IC50, SW780, 5 days drug exposure): 16 nM
